Experimental data: PubChem BioAssay AID489032 (Sanford-Burnham Center for Chemical Genomics, 2010)
Activity calls are given as the source filed them. How the calls were made is not given here.

test system: UPR adaptive arm reporter cells, luciferase luminescence; test: activators of adaptive UPR signalling, dose response, cell-based, luciferase luminescence (AID 489032)

Q: CCc1ccc(NC(=O)C(CC)Sc2nc3cc4c(cc3c(=O)n2Cc2ccco2)OCO4)cc1 (configuration not stated) was tested. Which EC50 did it give?
A: Its EC50 is > 80 µM (inactive).

Q: COc1cc(NC(=O)c2ccc(C)cc2C)ccc1NC(=O)c1cc2ccccc2o1 was tested. Which EC50 did it give?
A: The EC50 was > 80 µM (inactive).

Q: How did the EC50 turn out when COc1ccc(-c2c/c(=N\c3nc(-c4ccccc4)c(C)s3)c3ccccc3o2)cc1O was run?
A: The EC50 was > 80 µM (inactive).

Q: CCCc1nc2c(c(=O)c3ccccc3n2C)c(=O)n1C1CCCCCC1 was tested. Which EC50 did it give?
A: Its EC50 is > 80 µM (inactive).

Q: With C=CCN(CC=C)S(=O)(=O)c1ccc(C(=O)Nc2nc3c(s2)CCc2ccccc2-3)cc1 as the compound, how does the EC50 read?
A: Its EC50 is 39.9 µM (inactive).

Q: Which EC50 does the source give for Cc1cccc(NC(=O)/C(C#N)=C/c2cn(CC(=O)NCc3ccco3)c3ccccc23)c1C here?
A: Its EC50 is > 80 µM (inactive).

Q: With CC1CCCN(c2ccc(C(=O)NCc3cccs3)cn2)C1 (configuration not stated) as the compound, how does the EC50 read?
A: Its EC50 is > 80 µM (inactive).

Q: For Oc1cccc2ccc(/C=C/c3ccc(Br)s3)nc12, which EC50 is on record?
A: Its EC50 is > 80 µM (inactive).

Q: With C/C(=N/Nc1cc(-c2ccccc2)nc(-c2ccccc2)n1)c1ccc(O)cc1 as the compound, how does the EC50 read?
A: The EC50 was 19.9 µM.

Q: CC1=CC(C)(C)N2C(=O)C(=O)c3cc(OC(=O)c4ccco4)cc1c32 was tested. Which EC50 did it give?
A: Its EC50 is 53.1 µM (inactive).

Q: For CCOc1cc(/C=N/NC(=O)Cn2nc([N+](=O)[O-])cc2C)cc(Br)c1OCc1ccccc1C, which EC50 is on record?
A: Its EC50 is > 80 µM (inactive).

Q: Which EC50 does the source give for CCC(C)Nc1nc(N)c([N+](=O)[O-])c(NC2CCCCC2)n1 (configuration not stated) here?
A: Its EC50 is 55.9 µM (inactive).

Q: For Cc1ccc(-c2nn(CC(=O)NCc3cc(-c4nn(C)c(=O)c5ccccc45)ccc3C)c(=O)c3ccccc23)cc1, which EC50 is on record?
A: Its EC50 is > 80 µM (inactive).

Q: Which EC50 does the source give for OCCNc1nc(Nc2ccc(Br)cc2)nc2ccccc12 here?
A: Its EC50 is > 80 µM (inactive).

Q: Which EC50 does the source give for C/C(Cl)=C\Cn1c(O)c(N=NC(N)=S)c2cc(Br)ccc21 here?
A: Its EC50 is 4.06 µM.

Q: How did the EC50 turn out when COc1ccc(C(=O)Nc2cccc(/C=C/c3nc4ccccc4c(=O)[nH]3)c2)cc1 was run?
A: Its EC50 is > 80 µM (inactive).

Q: How did the EC50 turn out when CCOC(=O)N1CCN(S(=O)(=O)c2ccc(C(=O)Nc3nc4c(s3)CC(C)CC4)cc2)CC1 (configuration not stated) was run?
A: The EC50 was > 80 µM (inactive).

Q: How did the EC50 turn out when CCOc1ccc(NC(=O)C(Cc2ccccc2)N2C(=O)c3cccc4cccc(c34)C2=O)cc1 (configuration not stated) was run?
A: Its EC50 is > 80 µM (inactive).

Q: How did the EC50 turn out when COc1ccccc1NC(=O)c1cc2c(CO)cnc(C)c2oc1=Nc1ccccc1 was run?
A: The EC50 was 25.7 µM (inactive).

Q: Cc1ccc(NC(=O)c2nc[nH]c2C(=O)NCCCNC(=O)c2[nH]cnc2C(=O)Nc2ccc(C)cc2)cc1 was tested. Which EC50 did it give?
A: Its EC50 is > 80 µM (inactive).

Q: N#Cc1ccc(N/N=C/c2cn(-c3ccccc3)nc2-c2ccccc2)c([N+](=O)[O-])c1 was tested. Which EC50 did it give?
A: Its EC50 is > 80 µM (inactive).

Q: With CCc1sc2nc(SCC(=O)Nc3cc(C)on3)n(-c3cccc(OC)c3)c(=O)c2c1C as the compound, how does the EC50 read?
A: The EC50 was > 80 µM (inactive).

Q: How did the EC50 turn out when Cc1ccc2nc(SCC(=O)Nc3cc(C(F)(F)F)ccc3N3CCOCC3)[nH]c2c1 was run?
A: Its EC50 is > 80 µM (inactive).

Q: For NS(=O)(=O)c1ccc(N/N=C2/CCCCC2C2CCCCC2)c([N+](=O)[O-])c1 (configuration not stated), which EC50 is on record?
A: Its EC50 is > 80 µM (inactive).

Q: For O=C(Cn1c2ccccc2c(=O)c2cc([N+](=O)[O-])ccc21)Nc1ccccc1Cl, which EC50 is on record?
A: Its EC50 is > 80 µM (inactive).

Q: For O=C(COC(=O)c1ccc2[nH]c3c(c2c1)CCCC3)Nc1ccccc1Cl, which EC50 is on record?
A: The EC50 was > 80 µM (inactive).

Q: CCc1nn(-c2cc(Oc3cccc4ccccc34)nc(-c3ccccc3)n2)c(N)c1C#N was tested. Which EC50 did it give?
A: The EC50 was 49.2 µM (inactive).

Q: COc1ccc(-c2coc3cc4oc(=O)cc(-c5ccccc5)c4cc23)cc1F was tested. Which EC50 did it give?
A: Its EC50 is 43.3 µM (inactive).

Q: How did the EC50 turn out when N#Cc1ccccc1NC(=O)COc1c(Br)cc(Br)c2cccnc12 was run?
A: Its EC50 is > 80 µM (inactive).

Q: Which EC50 does the source give for C[C@@H]1C[C@H]2[C@@H]3CCC4=CC(=O)C=C[C@]4(C)[C@@]3(Cl)[C@@H](O)C[C@]2(C)[C@@]1(OC(=O)c1ccco1)C(=O)CCl here?
A: Its EC50 is > 80 µM (inactive).

Q: Which EC50 does the source give for O=C(Oc1ccc(F)cc1C(=O)/C=C/c1cccs1)c1cccc([N+](=O)[O-])c1 here?
A: The EC50 was 51.3 µM (inactive).

Q: Which EC50 does the source give for Cc1cccc2c1Sc1ccc(Cl)cc1CC2N1CCNCC1 (configuration not stated) here?
A: Its EC50 is > 80 µM (inactive).

Q: Which EC50 does the source give for COc1ccc(-c2nnc(SCC(=O)Nc3sc4c(c3C#N)CCCC4)n2-c2ccccc2)cc1 here?
A: Its EC50 is > 80 µM (inactive).

Q: COc1ccc(-c2nn(C)c(=O)c3ccccc23)cc1NC(=O)Cn1nc(C)c2ccccc2c1=O was tested. Which EC50 did it give?
A: The EC50 was 28 µM (inactive).

Q: How did the EC50 turn out when CC(C)(C)C(=O)NC(=S)NNC(=O)C(c1ccccc1)c1ccccc1 was run?
A: The EC50 was 27 µM (inactive).

Q: For COc1ccc(/C=C/c2nc3cc(-c4ccccc4)ccc3o2)cc1O, which EC50 is on record?
A: Its EC50 is > 80 µM (inactive).

Q: For COc1ccccc1C(=O)NC(=S)NNC(=O)c1sc2ccccc2c1Cl, which EC50 is on record?
A: The EC50 was > 80 µM (inactive).

Q: With CN(C)CCCN(C(=O)c1cc(-c2cccs2)nc2ccccc12)c1nc2ccc(F)cc2s1 as the compound, how does the EC50 read?
A: Its EC50 is > 80 µM (inactive).

Q: With O=c1cc(CN2CCN(c3ccccc3)CC2)c2cc(O)c(-c3ccccc3)cc2o1 as the compound, how does the EC50 read?
A: Its EC50 is 27.4 µM (inactive).

Q: How did the EC50 turn out when CN(C)S(=O)(=O)c1ccc(N2CCCC2)c(C(=O)Nc2nccs2)c1 was run?
A: The EC50 was 50 µM (inactive).

Q: With O=C(Nc1ccc2nc3n(c(=O)c2c1)CCCCC3)c1ccccc1Cl as the compound, how does the EC50 read?
A: The EC50 was > 80 µM (inactive).

Q: With CCN(CC)c1ccc(N=Cc2c(O)n(-c3ccc(Cl)cc3)c(=O)[nH]c2=O)cc1 as the compound, how does the EC50 read?
A: Its EC50 is 22.7 µM (inactive).

Q: O=C(O)c1ccc(N2C(=O)/C(=C/c3ccc(-c4ccc([N+](=O)[O-])cc4)o3)C=C2c2ccccc2)cc1 was tested. Which EC50 did it give?
A: Its EC50 is > 80 µM (inactive).

Q: How did the EC50 turn out when COc1ccc(C(=O)Oc2cc3c4c(c2)C(C)=CC(C)(C)N4C(=O)C3=O)cc1OC was run?
A: The EC50 was 25.4 µM (inactive).

Q: Which EC50 does the source give for COc1ccc(CNC(=O)/C(C#N)=C/c2cccc(OC)c2OC)cc1 here?
A: The EC50 was 73 µM (inactive).

Q: How did the EC50 turn out when CCCC[C@@H](C)C[C@@H](C)C(=O)N(C)[C@@H](CC(C)C)C(=O)N[C@H](C(=O)N(C)[C@H](C(=O)N1C[C@@H](O)C[C@H]1C(=O)N1C(=O)C=C[C@@H]1C)C(C)C)C(C)OC(C)=O (some centres not stated) was run?
A: Its EC50 is 13.4 µM.

Q: Which EC50 does the source give for CC(=O)c1cccc(Nc2nc(-c3cccc([N+](=O)[O-])c3)cs2)c1 here?
A: The EC50 was > 80 µM (inactive).

Q: COc1ccc2cc1Oc1ccc(cc1)C[C@H]1c3c(cc(OC)c4c3Oc3c(ccc5c3[C@H](C2)N(C)CC5)O4)CCN1C was tested. Which EC50 did it give?
A: Its EC50 is > 80 µM (inactive).

Q: Which EC50 does the source give for CCc1ccc(-c2cc(C(F)(F)F)n3nc(C(=O)Nc4cnn(Cc5ccc(C)cc5)c4)cc3n2)s1 here?
A: Its EC50 is 4.24 µM.

Q: With Cc1ccc(C(=O)C(C(=O)/C=C/c2ccccc2)=C2SCCCS2)cc1 as the compound, how does the EC50 read?
A: The EC50 was > 80 µM (inactive).

Q: COc1ccc(S(=O)(=O)N2c3cc(Cl)ccc3Oc3nc4ccccc4nc32)cc1 was tested. Which EC50 did it give?
A: Its EC50 is > 80 µM (inactive).

Q: Which EC50 does the source give for Cc1cc(NC(=O)c2cncc(Br)c2)ccc1NC(=O)c1cc2ccccc2o1 here?
A: Its EC50 is > 80 µM (inactive).

Q: Which EC50 does the source give for N#C/C(=C\c1ccc(N2CCCC2)c([N+](=O)[O-])c1)c1nc2ccccc2[nH]1 here?
A: The EC50 was > 80 µM (inactive).

Q: COc1ccc(-c2csc(C3=C(O)CN(Cc4ccc(Cl)cc4)C3=N)n2)cc1OC was tested. Which EC50 did it give?
A: Its EC50 is > 80 µM (inactive).

Q: For COc1ccc2c(c1)[nH]c1c(=O)n(/N=C/C3C(C)C=C(C)CC3C)c(=O)[nH]c12 (configuration not stated), which EC50 is on record?
A: The EC50 was 65.8 µM (inactive).

Q: Cc1cccnc1Nc1nc(-c2ccc(O)c(O)c2)cs1 was tested. Which EC50 did it give?
A: Its EC50 is > 80 µM (inactive).

Q: Cc1ccc(Cc2cnc(NC(=O)/C(C#N)=C/c3ccc(-c4cccc([N+](=O)[O-])c4)o3)s2)cc1 was tested. Which EC50 did it give?
A: Its EC50 is 18.1 µM.

Q: How did the EC50 turn out when Cc1cc(-n2c(SCC(=O)Nc3ccc(F)c(F)c3)nc3n[nH]c(C)c3c2=N)ccc1Cl was run?
A: Its EC50 is > 80 µM (inactive).

Q: O=C(N/N=C/c1ccc(O)c(O)c1)c1ccc(CSc2cccc3cccnc23)cc1 was tested. Which EC50 did it give?
A: Its EC50 is > 80 µM (inactive).

Q: Which EC50 does the source give for CCCCN(CC)S(=O)(=O)c1ccc(C(=O)N=c2sc3cc(NC(C)=O)ccc3n2C)cc1 here?
A: The EC50 was 5.4 µM.

Q: How did the EC50 turn out when O=[N+]([O-])c1cccc(/C=C/c2ccc3cccc(O)c3n2)c1 was run?
A: Its EC50 is 28.7 µM (inactive).

Q: Which EC50 does the source give for Cc1ccc(NC(=O)c2ccc(N/N=C/c3cccc(O)c3)c([N+](=O)[O-])c2)cc1 here?
A: Its EC50 is > 80 µM (inactive).
